In patent US20050222247A1, “Chroman derivatives” (Bayer HealthCare AG, priority 2003, published 2005) one finds EC50, melting point and IC50 data, which are given here for 16 compounds.

Counter-ions that a name gives are not always drawn.

The target of data set [1] is T1, β3-adrenoceptor (Homo sapiens, UniProt P13945).
T1 construct: which endogenously express β1- and β3-adrenoceptors; endogenous in cells; host or cells: SK-N-MC human neuroblastoma cells
Nature of the data set: Measurement of cAMP production in SK-N-MC cells (Assay 1 - Method B). It is filed as cell-based. The conditions noted are these: 1 μM Atenolol, read-out: Beta-3 EC50. How it is done:
Measurement of cAMP production in SK-N-MC Cells (Assay 1—Method B)
Human neuroblastoma cell line, SK-N-MC, which endogenously express […] were utilized. In the presence or absence of 1 μM of β1-adrenoceptor selective antagonist, Atenolol, the effects of the compounds on cAMP levels were examined. SK-N-MC cells were suspended in Hank's balanced salt solution containing 20 mM Hepes, 0.1% BSA, 1 mM L-ascorbic acid sodium salt, 250 nM IBMX, and 1 μM Atenolol (pH 7.4). After incubating at 37° C. for 1 h, the compound of the present invention was added and cells were further incubated for 30 min. Total cAMP in the well was measured by cAMP ELISA kit (Tropix, Bedford, Mass.). Effect of the compound on the cAMP level was determined at 8 different concentrations from 1 pM to 10 μM. The concentration to induce 50% of maximum response, 50% effective concentration (EC50), was calculated.

The target of data set [2] is T2, human β2-adrenoceptor (Homo sapiens, UniProt P07550).
T2 construct: expressed in transfected cells; host or cells: Chinese hamster ovary (CHO) cells (hβ2-CHO)
T2 sequence (P07550 whole entry): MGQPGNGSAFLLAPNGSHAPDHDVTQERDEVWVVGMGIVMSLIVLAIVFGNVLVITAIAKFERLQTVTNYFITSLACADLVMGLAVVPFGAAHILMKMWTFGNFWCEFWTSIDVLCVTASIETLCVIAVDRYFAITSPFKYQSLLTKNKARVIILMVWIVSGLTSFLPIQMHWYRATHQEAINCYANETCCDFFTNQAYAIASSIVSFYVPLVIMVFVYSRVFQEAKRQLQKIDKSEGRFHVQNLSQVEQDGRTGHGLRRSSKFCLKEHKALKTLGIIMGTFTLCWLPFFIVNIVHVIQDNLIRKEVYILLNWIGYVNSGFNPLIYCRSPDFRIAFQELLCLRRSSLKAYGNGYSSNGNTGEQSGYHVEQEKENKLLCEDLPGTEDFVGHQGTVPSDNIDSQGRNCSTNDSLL
Nature of the data set: Antagonistic activity, isoproterenol-induced cAMP production in CHO cells (Assay 3). It is filed as cell-based. The conditions noted are these: antagonist; inhibition of cAMP production induced by 100 nM isoproterenol, hβ2-CHO cells; read-out: Beta-2 IC50. How it is done:
(§1) Measurement of Antagonistic Activity for Human […] (Assay 3)
(§2) The antagonistic activity of the compound to human β2-adrenoceptor was examined by measurement of cAMP levels in the hβ2-CHO cells stimulated by isoproterenol. The hβ2-CHO cells were suspended in Hank's balanced salt solution containing 20 mM Hepes, 0.1% BSA, 1 mM L-ascorbic acid sodium salt, and 250 nM IBMX (pH 7.4). The cells were stimulated by non-selective β-adrenoceptor agonist isoproterenol at 100 nM to increase cAMP levels. After incubating at 37° C. for 30 min, the compound of the present invention was added and cells were further incubated for 30 min. Total cAMP in the well was measured by cAMP ELISA kit (Tropix, Bedford, Mass.). Inhibitory effect of the compound on the isoproterenol-induced cAMP production was determined at 6 different concentrations from 0.1 nM to 10 μM. The concentration to induce 50% of inhibitory response, 50% inhibitory concentration (IC50), was calculated. Experiments with the same methods were performed in CHO cells expressing recombinant human β1-adrenoceptor to examine the effects of the compounds on human β1-adrenoceptor.
For orientation: cAMP levels reflect the balance of adenylyl cyclase and phosphodiesterase activity.

The target of data set [3] is T3, human β1-adrenoceptor (Homo sapiens, UniProt P08588).
T3 construct: expressed in transfected cells; host or cells: Chinese hamster ovary (CHO) cells
T3 sequence (P08588 whole entry): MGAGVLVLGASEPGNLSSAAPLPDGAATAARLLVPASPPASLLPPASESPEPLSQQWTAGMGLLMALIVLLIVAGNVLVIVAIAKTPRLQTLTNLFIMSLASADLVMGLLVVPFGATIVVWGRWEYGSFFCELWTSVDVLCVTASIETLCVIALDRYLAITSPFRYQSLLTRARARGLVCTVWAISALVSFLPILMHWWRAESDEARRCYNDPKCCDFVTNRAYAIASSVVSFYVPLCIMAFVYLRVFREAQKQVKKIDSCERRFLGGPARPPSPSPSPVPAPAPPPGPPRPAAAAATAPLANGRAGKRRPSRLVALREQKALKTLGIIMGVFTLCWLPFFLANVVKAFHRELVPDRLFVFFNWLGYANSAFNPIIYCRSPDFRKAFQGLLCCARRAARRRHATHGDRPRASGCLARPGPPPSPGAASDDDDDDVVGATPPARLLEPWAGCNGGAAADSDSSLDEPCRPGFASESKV
The data set is described as above. The conditions noted are these: antagonist; inhibition of cAMP production induced by 100 nM isoproterenol, CHO cells expressing human β1-adrenoceptor; read-out: Beta-1 IC50. The class given is cell-based. How it is done: as §1, §2

Data set [4] addresses T1, β3-adrenoceptor. Nature of the data set: Measurement of cAMP production in SK-N-MC cells (Assay 1 - Method A). The class given is cell-based. The conditions noted are these: 1 μM CGP20712A, read-out: Beta-3 EC50. How it is done: Measurement of cAMP Production in SK-N-MC Cells (Assay 1—Method A)
Human neuroblastoma cell line, SK-N-MC, which endogenously express β1- and β3-adrenoceptors was utilized. In the presence of 1 μM of […] selective antagonist, CGP20712A, the effects of the compounds on cAMP levels were examined. SK-N-MC cells were suspended in Hank's balanced salt solution containing 20 mM Hepes, 0.1% BSA, 1 mM L-ascorbic acid sodium salt, 250 nM IBMX, and 1 μM CGP20712A (pH 7.4). After incubating at 37° C. for 30 min, the compound of the present invention was added and cells were further incubated for 30 min. Total cAMP in the well was measured by cAMP ELISA kit (Tropix, Bedford, Mass.). Effect of the compound on the cAMP level was determined at 6 different concentrations from 0.1 nM to 10 μM. The concentration to induce 50% of maximum response, 50% effective concentration (EC50), was calculated. In addition, intrinsic activity (IA) was determined as a maximum response induced by each compound, and IA was expressed as relative value compared with a response induced by 10 μM isoproterenol (i.e. cAMP level increased by 10 μM isoproterenol was taken as 100%).

Data set [5] addresses T2, human β2-adrenoceptor. As to the kind of experiment: Agonistic activity, cAMP levels in CHO cells (Assay 2 - Method A). It is filed as cell-based. The conditions noted are these: agonist, hβ2-CHO cells, read-out: Beta-2 EC50. The procedure:
(§3) Measurement of Agonistic Activity for Human β1-Adrenoceptor Or Human β2-Adrenoceptor (Assay 2—Method A)
(§4) The agonistic activity of the compound to human […] was examined by measurement of cAMP levels in Chinese hamster ovary (CHO) cells, in which recombinant human […] was expressed (hβ2-CHO cells). The hβ2-CHO cells were suspended in Hank's balanced salt solution containing 20 mM Hepes, 0.1% BSA, 1 mM L-ascorbic acid sodium salt, and 250 nM IBMX (pH 7.4). After incubating at 37° C. for 30 min, the compound of the present invention was added and cells were further incubated for 30 min. Total cAMP in the well was measured by cAMP ELISA kit (Tropix, Bedford, Mass.). The effect of the compound on the cAMP level was determined at 6 different concentrations from 0.1 nM to 10 μM. The concentration to induce 50% of maximum response, 50% effective concentration (EC50), was calculated. In addition, intrinsic activity (IA) was determined as a maximum response induced by each compound, and IA was expressed as relative value compared with a response induced by 10 μM isoproterenol (i.e. cAMP level increased by 10 μM isoproterenol was taken as 100%). Experiments with the same methods were performed in CHO cells expressing recombinant human β1-adrenoceptor to examine the effects of the compounds on human β1-adrenoceptor.

Data set [6] concerns the target T3, human β1-adrenoceptor. The description is as above. The class given is cell-based. The conditions noted are these: agonist, CHO cells expressing recombinant human β1-adrenoceptor, read-out: Beta-1 EC50. The procedure: as §3, §4
Data set [7] addresses T2, human β2-adrenoceptor. As to the kind of experiment: Agonistic activity, calcium influx in CHO cells (Assay 2 - Method B). It is filed as cell-based. Particulars: agonist, hβ2-CHO cells, read-out: Beta-2 EC50. From the text:
(§5) Measurement of Agonistic Activity for Human β1-Adrenoceptor or Human β2-Adrenoceptor (Assay 2—Method B)
(§6) The agonistic activity of the compound to human β2-adrenoceptor was examined by measurement of calcium influx in Chinese hamster ovary (CHO) cells, in which recombinant human β2-adrenoceptor was expressed (hβ2-CHO cells). The cells were cultivated in DMEM F12 medium. Prior to measurement, the cells were loaded with Coelenterazine (1:2000) in Ca-Tyrode. The Ca-influx was directly measured for 45 sec (Hamamatsu FluoroBox fluorescence detector). The effect of the compound on calcium influx was determined at 8 different concentrations from 1 pM to 10 μM. The concentration to induce 50% of maximum response, 50% effective concentration (EC50), was calculated. Experiments with the same methods were performed in CHO cells expressing recombinant human β1-adrenoceptor to examine the effects of the compounds on human β1-adrenoceptor.

The target of data set [8] is T3, human β1-adrenoceptor. The data set is described as above. The conditions noted are these: agonist, CHO cells expressing recombinant human β1-adrenoceptor, read-out: Beta-1 EC50. The class given is cell-based.
Source text: as §5, §6

Broadly, the EC50 is the concentration giving half of the maximal effect. By melting point is commonly meant the temperature of the solid-liquid transition. For orientation: IC50 means the concentration needed to halve the response being measured.

T1 sequence (P13945 whole entry): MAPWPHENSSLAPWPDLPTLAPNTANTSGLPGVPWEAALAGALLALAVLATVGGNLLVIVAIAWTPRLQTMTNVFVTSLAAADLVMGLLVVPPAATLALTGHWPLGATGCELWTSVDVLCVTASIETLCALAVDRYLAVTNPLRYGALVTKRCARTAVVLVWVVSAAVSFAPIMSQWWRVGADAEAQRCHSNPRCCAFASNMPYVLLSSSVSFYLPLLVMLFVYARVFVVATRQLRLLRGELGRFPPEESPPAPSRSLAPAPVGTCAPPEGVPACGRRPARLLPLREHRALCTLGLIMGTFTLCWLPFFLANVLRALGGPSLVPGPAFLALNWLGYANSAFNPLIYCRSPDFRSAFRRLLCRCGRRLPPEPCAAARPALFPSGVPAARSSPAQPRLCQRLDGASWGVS

Regarding `O=C(O)c1cccc(Nc2ccc3c(c2)CC[C@H](CNC[C@H](O)COc2ccccc2)O3)c1` [Example 11], the EC50 on β3-adrenoceptor [1] was 0.186 µM.
Regarding `O=C(O)c1ccccc1Oc1ccc2c(c1)CC[C@H](CNC[C@H](O)COc1ccccc1Cl)O2` [Example 39], the melting point turned out to be 230 °C.
In the case of `O=C(O)c1ccccc1Oc1ccc2c(c1)CC[C@H](CNC[C@H](O)COc1ccccc1)O2` [Example 1, 2-{[(2R)-2-({[(2S)-2-hydroxy-3-phenoxypropyl]amino}methyl)-3,4-dihydro-2H-chromen-6-yl]oxy}benzoic Acid], the figures for the IC50 at human β2-adrenoceptor [2] and on human β1-adrenoceptor [3] were 0.93 µM and greater than 10 µM, respectively. Also, the EC50 is 0.026 µM at β3-adrenoceptor [4], greater than 10 µM on human β2-adrenoceptor [5] and greater than 10 µM at human β1-adrenoceptor [6].
`O=C(O)c1ccccc1Oc1ccc2c(c1)CC[C@H](CNC[C@H](O)COc1ccccc1F)O2` [Example 36] registered a melting point of 209 °C.
Turning to `O=C(O)c1ccccc1Oc1ccc2c(c1)CC[C@H](CNC[C@H](O)COc1ccccc1-c1ccccc1)O2` [Example 37], the melting point was determined as 175 °C. On β3-adrenoceptor [4], the EC50 worked out at 0.23 µM.
`O=C(O)c1ccccc1Oc1ccc2c(c1)CC[C@H](CNC[C@H](O)COc1ccccc1C(F)(F)F)O2` [Example 38] gave a melting point of 162 °C.
On to `COc1cc(C(=O)O)ccc1Oc1ccc2c(c1)CC[C@H](CNC[C@H](O)COc1ccccc1)O2` [Example 12], for which, on β3-adrenoceptor [4], the EC50 stood at 0.27 µM.
Same read-out and setting: as for `CN(c1ccc(C(=O)O)cc1)c1ccc2c(c1)CC[C@H](CNC[C@H](O)COc1ccccc1)O2` [Example 2, 4-[[(2R)-2-({[(2S)-2-hydroxy-3-phenoxypropyl]amino}methyl)-3,4-dihydro-2H-chromen-6-yl](methyl)amino]benzoic acid hydrochloride], the figure is 0.014 µM.
On to `COc1cc(Oc2ccc3c(c2)CC[C@H](CNC[C@H](O)COc2ccccc2)O3)c(C(=O)O)cc1OC` [Example 54], for which the EC50 at human β2-adrenoceptor [7] is greater than 10 µM; at human β1-adrenoceptor [8], 8 µM.
On to `O=C(O)c1ccccc1Oc1ccc2c(c1)CC[C@H](CNC[C@H](O)COc1c(F)cccc1F)O2` [Example 41], for which the melting point is 196 to 198 °C.
Same read-out and setting: to `O=C(O)c1ccccc1Oc1ccc2c(c1)CC[C@H](CNC[C@H](O)COc1ccccc1N1CCOCC1)O2` [Example 42] belongs 173 to 176 °C.
On to `CC(C)(C)c1cc(C(=O)O)ccc1Oc1ccc2c(c1)CC[C@H](CNC[C@H](O)COc1ccccc1)O2` [Example 23], for which the EC50 on human β2-adrenoceptor [5] is greater than 10 µM.
As to `O=C(O)c1ccccc1Oc1ccc2c(c1)CC[C@H](CNC[C@H](O)COc1ccc(F)c(Cl)c1)O2` [Example 43], the melting point fell in the range of 196 to 199 °C.
Regarding `O=C(O)c1cc(F)ccc1Oc1ccc2c(c1)CC[C@H](CNC[C@H](O)COc1ccccc1)O2` [Example 44, 5-fluoro-2-{[(2R)-2-({[(2S)-2-hydroxy-3-phenoxypropyl]amino}methyl)-3,4-dihydro-2H-chromen-6-yl]oxy}benzoic Acid Hydrochloride], the EC50 on human β2-adrenoceptor [7] was greater than 10 µM; on human β1-adrenoceptor [8] it was greater than 10 µM; at β3-adrenoceptor [1], 0.023 µM.
As for `N#Cc1ccc(Nc2ccc3c(c2)CC[C@H](CNC[C@H](O)COc2ccccc2)O3)cc1` [Example 29], at β3-adrenoceptor [4], the 50% effective concentration (EC50) was found to be 0.16 µM.
`O=C(O)c1ccccc1Oc1ccc2c(c1)CC[C@H](CNC[C@H](O)COc1ccc(F)cc1F)O2` [Example 40] had a melting point of 138 to 142 °C.
